Measurements published in patent publication US12358949B2, “Defensin fragments for use in therapy or prophylaxis” (priority 2019, dated 2025).
Converted amounts (≈) assume the structure as drawn. Read-outs that look alike come from different tables or passages of the source. Where a SMILES comes first, the peptide text is derived from it. [ ]: non-standard residue; d: D form.

What was measured:
[1] = test system: human cell line, red blood cells
Protocol: As positive control, cells were treated with 2% Triton X-100 while treatment with 0.01% acetic acid was used as negative control. […] Hemolytic activity was normalized to the hemolytic activity of 0.1% Triton X-100. The experiments were carried out in duplicates.
The activity was normalized to the positive control. As positive control, cells were treated with 2% Triton X-100 while treatment with 0.01% acetic acid was used as negative control.

S. aureus ATCC 25923 = format: cell-based
Protocol: (§1) The tested bacteria were incubated overnight in 1×TSB broth, centrifuged and washed with 10 mM sodium phosphate buffer containing 1% (w/v) TSB broth. 5×10^5 cfu/ml bacteria were mixed with different peptide concentrations in 10 mM sodium phosphate buffer with 1% (w/v) TSB (final volume 100 μl) and incubated for 2 hours at 37° C. Afterwards we added 100 μl 2×TSB broth and we measured the optical density at 600 nm (Spark 10M, Tecan, Austria). Bacterial growth was monitored for 12 hours, growing at 37° C. with shaking during the measurements each 30 minutes, except for Akkermansia muciniphila which were incubated at 37° C. in an anaerobic jar and growth was measured after 72 hours.

P. aeruginosa XPAT1 = format: cell-based
Protocol: as §1

P. aeruginosa PAO1 = format: cell-based
Protocol: as §1

E. coli BW 25113 [2] = format: cell-based
Protocol: as §1

P. aeruginosa ATCC 27853 = format: cell-based
Protocol: as §1

A. baumannii 4-MRGN = format: cell-based
Protocol: as §1

Y. enterocolitica = format: cell-based
Protocol: as §1

E. faecium DSM 20477 = format: cell-based
Protocol: as §1

S. aureus USA300 = format: cell-based
Protocol: as §1

A. baumannii DSM 30007 = format: cell-based
Protocol: as §1

P. aeruginosa 4-MRGN = format: cell-based
Protocol: as §1

P. aeruginosa XPAT2 = format: cell-based
Protocol: as §1

[3] = test system: S. enterica serovar enteriditis; assay: Turbidity broth assay (MIC); format: cell-based; settings: after 12 hours
Protocol: as §1

E. faecium 475747 = format: cell-based
Protocol: as §1

K. pneumoniae 3-MRGN = format: cell-based
Protocol: as §1

K. pneumoniae DSM 30104 = format: cell-based
Protocol: as §1

C. albicans 529L = format: cell-based
E. coli JM83 = format: cell-based
Protocol: as §1

human erythrocytes = assay: Hemolytic assay; format: cell-based; settings: for hemolytic activity, in words: compared to Melittin
Protocol: Hemolytic activity was measured after an existing protocol^13. We obtained blood from two voluntary donors (sample collection had been previously approved by the Ethical Committee of the University Hospital of Tübingen, Germany) and 1 ml blood was washed with PBS two times. Afterwards we centrifuged the blood at 1000 g and performed a 1% (v/v) blood suspension in PBS. The blood suspension was incubated with different peptide concentrations (final concentration 0.5%) for one hour at 37° C. Then the samples were centrifuged at 1000 g for 10 minutes and the supernatant was collected and measured at 414 nm. […] These experiments were carried out in duplicates.

CaCo2/TC7 cells = test system: CaCo2/TC7 cells
Protocol: CaCo2/TC7 (X, X) and HT29 MTX […] […] Experiments were carried out in duplicates.

E. coli BW 25113 [4] = assay: Turbidity assay, MIC by optical density after 18 h; format: cell-based; design: key: XX High activity; X Low activity; No activity
Protocol: Bactericidal activity of the E. coli and S. aureus strains in the cell wall target experiments as well as the HD5 dimer experiments was assessed as described previously. Log-phase bacteria were collected by centrifugation (2500 rpm, 10 min, […]), washed twice with 10 mM sodium phosphate buffer containing 1% (w/v) TSB broth and the optical density at OD600 nm (OD600=0.1) was determined. Approximately 5×10^5 CFU/ml bacteria were incubated with serial peptide concentrations (1.17-150 μM) in a final volume of 100 μl in 10 mM sodium phosphate buffer containing 1% (w/v) TSB broth for 2 hours at 37° C. After incubation, 100 μl of 6% TSB (w/v) were added and absorbance was measured at 600 nm (Tecan, Switzerland) and monitored for 18 hours. Afterwards, 100 μl per well were plated on LB-plates to determine the numbers of viable bacteria microbiologically. Bactericidal activity is expressed as the LC99.9, the lowest concentration that killed ≥99.9% of bacteria. The experiment was repeated at least three times independently.

[5] = test system: S. enterica serovar Enteritidis; assay: Turbidity assay, MIC by optical density after 18 h; format: cell-based; design: key: XX High activity; X Low activity; No activity
E. faecalis ATCC 19433 = assay: Turbidity assay, MIC by optical density after 18 h; format: cell-based
[6] = S. aureus ATCC25923, after 12 hours
[7] = E. faecium 475747, after 12 hours
[8] = P. aeruginosa XPAT1, after 12 hours
[9] = K. pneumoniae 3-MRGN, after 12 hours
[10] = P. aeruginosa PAO1, after 12 hours
[11] = P. aeruginosa ATCC 27853, after 12 hours
[12] = A. baumannii 4-MRGN, after 12 hours
[13] = Y. enterocolitica, after 12 hours
[14] = E. faecium DSM20477, after 12 hours
[15] = S. aureus USA300, after 12 hours
[16] = A. baumannii DSM30007, after 12 hours
[17] = P. aeruginosa 4-MRGN, after 12 hours
[18] = K. pneumoniae DSM30104, after 12 hours
[19] = P. aeruginosa XPAT2, after 12 hours
[20] = C. albicans 529L, after 24 hours (Table 5)

Protocol for HT29 MTX E29 cells: CaCo2/TC7 (X, X) and HT29 MTX [MUT] (X, X) were seed in a 96 well plate in 90 μl media (1500 cells/well) and incubated at 37° C. for 24 hours. Afterwards peptide treatment with different concentrations started (volume of 10 μl solved in 0.01% acetic acid) and cells were incubated for 96 hours. Untreated and 1% Triton-X treated cells were used as controls. After the incubation we added 100 μl of CellTiter Glo2.0 solution and started our measurement protocol. The measurement was carried out in a Spark 10M (Tecan), starting with 12 minutes continuously shaking followed by the luminescence measurement with an integration time from 1 second per well. Experiments were carried out in duplicates.

Compound	MIC (S. aureus ATCC 25923; ATCC 25923, 12 h) [µM]	MIC (P. aeruginosa XPAT1; XPAT1, 12 h) [µM]	MIC (P. aeruginosa PAO1; PAO1, 12 h) [µM]	MIC (P. aeruginosa ATCC 27853; ATCC 27853, 12 h) [µM]	MIC (A. baumannii 4-MRGN; 4-MRGN, 12 h) [µM]	MIC (Y. enterocolitica; 12 h) [µM]	MIC (E. faecium DSM 20477; DSM 20477, 12 h) [µM]	MIC (S. aureus USA300; USA300, 12 h) [µM]	MIC (A. baumannii DSM 30007; DSM 30007, 12 h) [µM]	MIC (P. aeruginosa 4-MRGN; 4-MRGN, 12 h) [µM]	MIC (P. aeruginosa XPAT2; XPAT2, 12 h) [µM]	MIC (S. aureus ATCC 25923; [6])	MIC (E. faecium 475747; [7])	MIC (P. aeruginosa XPAT1; [8])	MIC (K. pneumoniae 3-MRGN; [9])	MIC (P. aeruginosa PAO1; [10])	MIC (P. aeruginosa ATCC 27853; [11])	MIC (A. baumannii 4-MRGN; [12])	MIC (Y. enterocolitica; [13])	MIC (E. faecium DSM 20477; [14])	further results
C[C@H](N)C(=O)N[C@H](C(=O)N[C@@H](CS)C(=O)N[C@@H](Cc1ccc(O)cc1)C(=O)N[C@@H](CS)C(=O)N[C@@H](CCCNC(=N)N)C(=O)N[C@H](C(=O)NCC(=O)N[C@@H](CCCNC(=N)N)C(=O)O)[C@@H](C)O)[C@@H](C)O [HD-51-9] (H-ATCYCRTGR-OH; N-terminus and C-terminus assumed)	50	>100	50	50	25	50 to 100	25	50	100	100	>100										toxic effect in in vitro experiments [1]: no toxicity was observed; MIC (E. coli BW 25113 [2]; BW 25113, 12 h): 25 µM (≈ 25.8 µg/mL)
Ac-atcycrtGr-NH2 [HD-51-9mod]												12.5 µM	3.125 µM	>100 µM	>>>	50 µM	12.5 µM	12.5 µM	50 to 100 µM	6.25 µM	MIC [3]: >>>; MIC (E. coli BW 25113 [2]; E. coli (BW 25113 per table title), after 12 hours): 25 µM; MIC (S. aureus USA300; [15]): 12.5 µM; MIC (A. baumannii DSM 30007; [16]): 25 µM; MIC (P. aeruginosa 4-MRGN; [17]): 50 µM; MIC (K. pneumoniae DSM 30104; [18]): >>>; MIC (P. aeruginosa XPAT2; [19]): 100 µM; MIC (C. albicans 529L; C. albicans 529L, after 12 hours (Table 4)): >100 µM
CC(C)C[C@H](NC(=O)[C@H](CCCNC(=N)N)NC(=O)[C@H](CS)NC(=O)[C@H](CO)NC(=O)[C@H](CS)NC(=O)[C@@H](N)C(C)C)C(=O)N[C@H](C(=O)N[C@@H](Cc1ccccc1)C(=O)N[C@@H](CS)C(=O)N[C@@H](CCCNC(=N)N)C(=O)N[C@@H](CCCNC(=N)N)C(=O)O)C(C)C [HNP-41-11] (H-VCSCRLVFCRR-OH; N-terminus and C-terminus assumed)	12.5	12.5	12.5	12.5	25	12.5	12.5	50	6.25	50	12.5	16.8 µg/mL	4.2 µg/mL	16.8 µg/mL	33.5 µg/mL	16.8 µg/mL	16.8 µg/mL	33.5 µg/mL	16.8 µg/mL	16.8 µg/mL	cytotoxic effects compared to CaCo2/TC7 (HT29 MTX E29 cells): more susceptible; MIC (E. coli JM83; E. coli JM83, after 12 hours): 8.4 µg/mL; MIC (E. coli JM83; JM83, 12 h): 6.25 µM; MIC (E. faecium 475747; 475747, 12 h): 3.125 µM; MIC (K. pneumoniae 3-MRGN; 3-MRGN, 12 h): 25 µM; MIC (S. aureus USA300; [15]): 67.1 µg/mL; MIC (A. baumannii DSM 30007; [16]): 8.4 µg/mL; MIC (P. aeruginosa 4-MRGN; [17]): 67.1 µg/mL; MIC (K. pneumoniae DSM 30104; DSM 30104, 12 h): 25 µM; MIC (K. pneumoniae DSM 30104; [18]): 33.5 µg/mL; MIC (P. aeruginosa XPAT2; [19]): 16.8 µg/mL; hemolytic activity, in words (human erythrocytes): low hemolytic activity; MIC (C. albicans 529L; 529L, 24 h): 100 µM; MIC (C. albicans 529L; [20]): 134.2 µg/mL; cytotoxic effects (CaCo2/TC7 cells): minor cytotoxic effects
CC(=O)N[C@@H](C(=O)N[C@H](CS)C(=O)N[C@H](CO)C(=O)N[C@H](CS)C(=O)N[C@H](CCCNC(=N)N)C(=O)N[C@H](CC(C)C)C(=O)N[C@@H](C(=O)N[C@H](Cc1ccccc1)C(=O)N[C@H](CS)C(=O)N[C@H](CCCNC(=N)N)C(=O)N[C@H](CCCNC(=N)N)C(N)=O)C(C)C)C(C)C [HNP-41-11mod, Ac-vcscrlvfcrr-NH2] (Ac-[dV][dC][dS][dC][dR][dL][dV][dF][dC][dR][dR]-NH2)	3.125	12.5	12.5	6.25	6.25	6.25	6.25	12.5	6.25	6.25	12.5	4.3 µg/mL	4.3 µg/mL	17.3 µg/mL	8.6 µg/mL	17.3 µg/mL	8.6 µg/mL	8.6 µg/mL	8.6 µg/mL	8.6 µg/mL	cytotoxic effects compared to CaCo2/TC7 (HT29 MTX E29 cells): more susceptible; MIC (E. coli JM83; E. coli JM83, after 12 hours): 8.6 µg/mL; MIC (E. coli JM83; JM83, 12 h): 6.25 µM; MIC (E. faecium 475747; 475747, 12 h): 3.125 µM; MIC (K. pneumoniae 3-MRGN; 3-MRGN, 12 h): 6.25 µM; MIC (S. aureus USA300; [15]): 17.3 µg/mL; MIC (A. baumannii DSM 30007; [16]): 8.6 µg/mL; MIC (P. aeruginosa 4-MRGN; [17]): 8.6 µg/mL; MIC (K. pneumoniae DSM 30104; DSM 30104, 12 h): 6.25 µM; MIC (K. pneumoniae DSM 30104; [18]): 8.6 µg/mL; MIC (P. aeruginosa XPAT2; [19]): 17.3 µg/mL; hemolytic toxicity (human erythrocytes; at ≤18.75 μM): negligible toxicity; hemolytic activity, in words (human erythrocytes): low hemolytic activity; MIC (C. albicans 529L; 529L, 24 h): 25 µM; MIC (C. albicans 529L; [20]): 34.6 µg/mL; cytotoxic effects (CaCo2/TC7 cells): minor cytotoxic effects
RGTRCYCTA [HD-51-9rev]																					antimicrobial activity (MIC), activity class (E. coli BW 25113 [4]): XX; antimicrobial activity (MIC), activity class [5]: X; antimicrobial activity, in words (E. faecalis ATCC 19433): complete dissolving of bactericidal effects
